Source: patent publication US9051318B2, “Pyrido [2, 3-B] pyrazine compounds and their therapeutical uses such as for inhibiting ATP consuming proteins and treating diseases associated therewith” (Merck Patent GmbH, priority 2011, dated 2015)
pIC50: −log10 of the molar value.

Columns and labels:
GST-ALK5 = molecular target: T1, GST-ALK5 (Homo sapiens, UniProt P36897); assay: In-vitro (enzyme) kinase flashplate assay, TGF-beta receptor kinase (Example 9); type: biochemical; conditions: GST-ALK5, GST-SMAD2 substrate, 3 mM ATP, 30° C. 45 min; read-out: TβR activity (Example 9)
T1 sequence (P36897 34-503): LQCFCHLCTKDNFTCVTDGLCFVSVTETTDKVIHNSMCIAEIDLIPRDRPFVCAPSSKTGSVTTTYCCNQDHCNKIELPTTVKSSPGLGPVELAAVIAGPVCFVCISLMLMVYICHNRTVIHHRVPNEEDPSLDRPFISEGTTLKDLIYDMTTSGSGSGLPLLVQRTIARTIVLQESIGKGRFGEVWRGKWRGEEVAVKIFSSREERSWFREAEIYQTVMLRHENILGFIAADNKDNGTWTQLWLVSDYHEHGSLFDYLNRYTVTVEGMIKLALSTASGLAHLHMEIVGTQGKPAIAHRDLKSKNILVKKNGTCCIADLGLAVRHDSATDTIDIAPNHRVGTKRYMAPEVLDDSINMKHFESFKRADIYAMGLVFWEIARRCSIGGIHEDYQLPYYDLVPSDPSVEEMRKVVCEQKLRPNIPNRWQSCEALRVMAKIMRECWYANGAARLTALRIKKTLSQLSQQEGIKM
Method: The kinase assay was carried out as 384-well flashplate assay. 31.2 nM of GST-ALK5, 439 nM of GST-SMAD2 and 3 mM of ATP (with 0.3 μCi of ^33P-ATP/well) were incubated in a total volume of 35 μl (20 mM of HEPES, 10 mM of MgCl2, 5 mM of MnCl2, 1 mM of DTT, 0.1% of BSA, pH 7.4) without or with test substance (5-10 concentrations) at 30° C. for 45 min. The reaction was stopped using 25 μl of 200 mM EDTA solution, filtered with suction at room temperature after 30 min, and the wells were washed with 3 times 100 μl of 0.9% NaCl solution. Radioactivity was measured in the TopCount. The IC50 values were calculated using RS 1.

[1] = tested on: TGF-beta-induced phosphorylation of Smad2 (Ser465/467) and Smad3 (Ser423/425) in Mv1-Lu cells; assay: Inhibition of Smad2/3 phosphorylation in Mv1Lu cells (Example 10); type: cell-based, mink Mustela vison; conditions: Neogale vison, TGF-beta 1 5 ng/ml, phospho-Smad2/3 ELISA, read-out: TβR activity (Example 10)
Method: This assay was used to determine the inhibitory potency of compounds on TGF-beta-induced phosphorylation of Smad2 (Ser465/467) and Smad3 (Ser423/425). Mv1-Lu cells (lung epithelial cell line from mink Mustela vison; ATCC number: CCL-64) were seeded in DMEM (Invitrogen) supplemented with 10% fetal bovine serum (Pan Biotech) at a defined cell density in 24-well or 96-well plates (24-well plate: 1.5×10^5 cells per well; 96-well plate: 4×10^4 cells per well). Cell cultures were incubated in DMEM at 37° C. and 10% CO2. On the next day, the medium was replaced and cells were serum-starved for 16-20 hours. The following day, serial dilutions of compounds were added to the wells, pre-incubated for 1.5 hrs before recombinant TGF-beta 1 ligand (final concentration 5 ng/ml; R&D systems) was added. After one hour of ligand stimulation, lysates were prepared and analyzed using an enzyme-linked immunosorbent assay kit (PathScan Phospho-Smad2 Kit, Cell Signaling Technologies). The ELISA detects phosphorylated Smad2 as well as phosphorylated Smad3 with the phospho-specific antibody. TGF-beta stimulated cells and unstimulated cells served as positive and negative controls (100% and background control). The concentration of the vehicle DMSO was kept constant at 0.2% (v/v) in all wells. Dose-response relationships were fitted using curve fitting algorithms of the RS1 statistics software package (Brooks Automation Inc. RS/1—Statistical Tools Handbook. Release 6.2) to determine the concentration at which half-maximal inhibition (IC50) of Smad2/3 phosphorylation was achieved.

Row | SMILES | pIC50 (GST-ALK5) | pIC50 [1]
1 | Nc1nccc2c(-c3cc(-c4ccccc4F)nc4nccnc34)nccc12 [Compound 3, 5-[6-(2-Fluorophenyl)-pyrido[2,3-b]pyrazin-8-yl]-[2,6]naphthyridin-1-ylamine] | > 6.00 | > 6.00
2 | OCCn1cc(-c2cncc(-c3cc(-c4ccccc4F)nc4nccnc34)c2)cn1 [Compound 12, 2-[4-[5-[6-(2-Fluorophenyl)pyrido [2,3-b]pyrazin-8-yl]-3-pyridyl]pyrazol-1-yl]ethanol] | > 6.00 | > 6.00
3 | Nc1nccc2c(-c3cc(-c4cc(Cl)ccc4F)nc4nccnc34)nccc12 [Compound 5, 5-[6-(5-Chloro-2-fluorophenyl)-pyrido[2,3-b]pyrazin-8-yl]-[2,6]naphthyridin-1-ylamine] | – | > 6.00
4 | Nc1nccc2c(-c3cc(-c4cc(F)ccc4F)nc4nccnc34)nccc12 [Compound 8, 5-[6-(2,5-Difluoro-phenyl)pyrido[2,3-b]pyrazin-8-yl]-2,6-naphthyridin-1-amine] | – | > 6.00
5 | Cn1cc(-c2cncc(-c3cc(-c4ccccc4F)nc4nccnc34)c2)cn1 [Compound 10, 6-(2-Fluorophenyl)-8-[5-(1-methyl-1H-pyrazol-4-yl)-pyridin-3-yl]-pyrido[2,3-b] pyrazine] | > 6.00 | > 6.00
6 | Fc1ccccc1-c1cc(Nc2ccncc2)c2nccnc2n1 [Compound 1, [6-(2-Fluorophenyl)-pyrido[2,3-b]pyrazin-8-yl]-pyridin-4-yl-amine] | > 6.00 | > 6.00
7 | Nc1ncc(-c2cc(-c3ccccc3F)nc3nccnc23)c2ccncc12 [Compound 6, 4-[6-(2-Fluorophenyl)-pyrido[2,3-b]pyrazin-8-yl]-[2,7]naphthyridin-1-ylamine] | > 6.00 | > 6.00
8 | Nc1nccc2c(-c3cc(-c4ccccc4F)nc4nccnc34)cccc12 [Compound 4, 5-[6-(2-Fluorophenyl)-pyrido[2,3-b]pyrazin-8-yl]-isoquinolin-1-ylamine] | > 6.00 | > 6.00
9 | CN1CCC(n2cc(-c3cncc(-c4cc(-c5ccccc5F)nc5nccnc45)c3)cn2)CC1 [Compound 9, 6-(2-Fluorophenyl)-8-{5-[1-(1-methyl-piperidin-4-yl)-1H-pyrazol-4-yl]-pyridin-3-yl}-pyrido[2,3-b] pyrazine] | > 6.00 | > 6.00
10 | Fc1ccc(Cl)cc1-c1cc(Nc2ccnc3ccoc23)c2nccnc2n1 [Compound 14, N-[6-(5-Chloro-2-fluorophenyl)pyrido [2,3-b]pyrazin-8-yl]furo[3,2-b]pyridin-7-amine] | > 6.00 | > 6.00
11 | Fc1ccc(Cl)cc1-c1cc(Nc2ccncc2)c2nccnc2n1 [Compound 2, [6-(5-Chloro-2-fluoro-phenyl)-pyrido[2,3-b]pyrazin-8-yl]-pyridin-4-yl-amine] | > 6.00 | > 6.00
